The test system of assay [1] is murine fibroblast cell line (L929). The assay is described as follows: MTT viability assay. In kind it is cell-based. To be noted: L929 cells; for Toxicity group: 48 hrs, MTT, Group I no difference from DMSO, Group II dose-responsive inhibition, Group III >50% inhibition at the lowest concentration; for IC50: Mus musculus, read-out: IC50 (concentration of compound that induces 50% inhibition of survival); for IC50 / IC50 (concentration of compound that induces 50% inhibition of survival): MTT assay, 48 hrs incubation, doubling dilutions. The protocol: The MTT (3-(4, 5-dimethylthiazol-2-yl)-2, 5-diphenyl tetrazolium bromide) viability assays were carried out as per manufacturers' instructions (Sigma). The L929 cells were plated at 50,000 cells per well in a 96-well flat-bottom plate (Becton-Dickinson Labware, Franklin Lakes, NJ). The cells were cultured with decreasing concentrations of the compounds (in duplicate), beginning at 0.50 mg/ml and decreasing by half over eleven additional dilutions. As controls, cells remained untreated (media alone) or were treated with equivalent dilutions of dimethylsulfoxide (DMSO, vehicle control) (Sigma). Following a 48 h incubation, the MTT reagent was added at 10% of the total volume per well. Following a 4 h incubation, the formed crystals were solubilized by removing approximately ¾ of the supernatant and adding 50 µl of solvent (10% Triton × and 1% 12 N HCl in isopropanol) (Sigma). All wells were vigorously pipetted (without forming bubbles) to help dissolve the crystals. The plates were then read in a 96-well plate spectrophotometer at 570 nm.
(Tetrazolium assays rely on reduction of a dye to a coloured formazan, in cell work by metabolically active cells.)

Assay [2] concerns L929 cells. The experiment in a line: Light microscopy of compound-treated cells (morphology). In kind it is cell-based, murine. Conditions: 24 hr, compound at IC50 (H2O2 600 µM), light microscopy 40X. Here is the method:
The cells were cultured for 24 h at 37°C, 5% CO2. […] Digital images were captured using the AxioCam HR digital camera and were processed with Axiovision Software, Version 4.1.

For assay [3], the system named is L929 cells. The assay is described as follows: Flow cytometry assessment of apoptosis (Annexin V-FITC / propidium iodide). In kind it is cell-based, murine. Conditions: 48 hrs, IC50 (lowest concentration tested for highly cytotoxic compounds), versus medium alone. Here is the method: The cells were then washed in FACS buffer (phosphate buffered saline +2% fetal bovine serum), resuspended in 50 µl of buffer and then incubated with 30% normal mouse serum (Sigma) to prevent non-specific staining, for 15 min. at room temperature. The cells were then treated with 5 µl of FITC-conjugated annexin V (1 mg/ml stock) and 2 µl of propidium iodide (5 mg/ml stock). The cells were then mixed gently and incubated at room temperature for 15 minutes in the dark followed by an analysis by flow cytometry within the hour.
For orientation: In flow cytometry, cells or beads pass a laser one at a time.

Another assay has as its system caspase 3 in L929 cells. The assay is described as follows: Detection of active caspase-3 (colorimetric DEVD-pNA assay). The assay is classed as cell-based, murine. Conditions: 24 h treatment. Here is the method:
The assay was performed as per the manufacturers' instructions (BioSource International, Camarillo, CA). The L929 cells were plated at 3×10^6 cells per well in 6-well plates. The cells were then treated with the indicated compounds for 24 h. After treatment with the compounds, the cells were centrifuged, washed twice with 1× PBS, were re-suspended in 50 µL of chilled Cell Lysis Buffer and were incubated for 10 min. on ice. The samples were then centrifuged and the cytosolic extracts were then transferred to 96-well flat-bottom plates. Reaction buffer (5 µL of 1.0 M DTT to 500 µL of 2× Reaction buffer), made just prior to use, and was added to each well. DEVD-pNA substrate (5 µL) was then added to each well and the samples were incubated in the dark for an additional 2 h. The plates were then read on a spectrophotometer at a wavelength of 405 nm.

Assay [4] deals with L929 cells. The experiment in a line: Detection of reactive oxygen species (ROS) by DHCF-DA. To be noted: compound at IC50, 24 hrs, fluorometric assay. The assay is classed as cell-based, murine. Here is the method:
Cells were plated at 50,000 cells per well in 96-well plates, protected or unprotected by 10 µM ascorbic acid. Following a 4 h incubation period, the cells were then treated with the indicated compounds at the IC50 or with H2O2 as a positive control. Twenty-four hours later, the plates were centrifuged and the supernatants were collected. The adherent cells were treated with 20 µL of 0.25% trypsin (Invitrogen) for 2 min. The cells were then removed and transferred to black-walled 96-well plates to prevent bleeding of fluorescence between sample wells. Dichlorofluorescein-Diacetate (10 µM) (Invitrogen - Molecular Probes), was then added to each well. The plates were then immediately read on a fluorescent plate reader using excitation wavelength of 485 nm and emission wavelength of 538 nm. Fluorescence was determined every 10 min over a 320 min. period.

Assay [5] relates to L929 cells. The assay is described as follows: Catalase and superoxide dismutase (SOD) protection assay (MTT viability). To be noted: 48 hr; for Protection of compound-treated cells by SOD (viability): compound at IC50, SOD 0.5 mg/ml; for Protection of compound-treated cells by combination of catalase and SOD (viability): compound at IC50, catalase 1 mg/ml + SOD 0.5 mg/ml; for Protection of compound-treated cells by catalase (viability): compound at IC50, catalase 1 mg/ml. In kind it is cell-based, murine. The protocol:
L929 cells were plated at 50,000 cells/well in a 96-well flat-bottom plate. Catalase (1 mg/ml), SOD (0.5 mg/ml), or combinations of the two were added to the cells. The cells were also treated with the indicated compounds at a concentration that inhibited 50% of cellular viability or with media or DMSO as controls. Following a 48 h incubation period, cellular viability was assessed as described above (MTT assay).

Assay [6] deals with L929 cells. The assay is described as follows: Ascorbic acid protection assay (MTT viability). In kind it is cell-based, murine. Conditions: L929 cells pre-loaded for 4 h with 10 µM ascorbic acid, compound at IC50, 48 hrs. The protocol: […] The cells were then thoroughly washed with Hank's Balanced Salt Solution (HBSS (Invitrogen) and the MTT viability assay was conducted as described above.

For assay [7], the system named is L929 cells. The assay is described as follows: Detection of mitochondrial membrane depolarization (DePsipher, flow cytometry). In kind it is cell-based, murine. Conditions: compound at IC50, DePsipher. The protocol:
L929 cells (5×10^4 cells/well) were cultured in 12-well plates for 48 h in the presence of medium, DMSO, camptothecin (4 µM, positive control) or compound (IC50). The cells were then washed in FACS buffer resuspended in 100 µl of buffer. DePsipher (5, 5′6, 6′-tetrachloro-1, 1′, 3, 3′-tetraethylbenzimidazolylcarbocyanine iodide) (5 µl per sample) (Trevigen, Inc., Gaithersburg, MD) was then added. The cells were incubated at room temp., in the dark for a minimum of 15 min. The cells were assayed within the hour by flow cytometry. 10,000 events per sample were collected and analyzed by EXPO32 software.

Each structure is given as a SMILES string. Read-outs that look alike come from different tables or passages of the source.

For the molecule `O=C1C(c2ccccc2)=C(c2ccccc2)C(=O)c2ccccc21` [Compound 2, 2,3-diphenyl-1,4-napthoquinone], in assay [1], the Toxicity group result is listed as “Group II Intermediate toxicity” and the IC50 worked out at 30 µg/mL. In addition, in assay [1] (same value converted to µM), the IC50 came out at 96.7 µM. In addition, the “Effect on cellular morphology” value in the assay on L929 cells [2] is “detrimental to cell survival”. The “Externalization of phosphatidylserine (Annexin V staining)” value (from here on “Externalization of phosphatidylserine”) in the assay with L929 cells [3] is reported as “promoted externalization of PS significantly above that induced by medium alone”. In addition, in the assay on caspase 3 in L929 cells, the “Activation of caspase 3” value is given as “activated caspase 3 equivalently”. For the same molecule, in the assay on L929 cells [4], the “Formation of intracellular reactive oxygen species (ROS)” value (from here on “Formation”) is given as “induced levels of ROS equal to that induced by H2O2”. Besides, in the assay on L929 cells [5], the “Protection of compound-treated cells by SOD (viability)” value is “did not protect”; the “Protection of compound-treated cells by combination of catalase and SOD (viability)” value is “did not protect the cells against compound 2 beyond that provided by catalase alone”; the “Protection of compound-treated cells by catalase (viability)” value is on record as “partially protected”. The “Protection of compound-treated cells by ascorbic acid pre-treatment (viability)” value with L929 cells [6] is “partially protected from cell death”.
Turning to `CC1=C(C)C(=O)c2ccccc2C1=O` [Compound 3, 2,3-dimethyl-1,4-napthoquinone], the values for the IC50 in assay [1] and in assay [1] (same value converted to µM) were 8 µg/mL and 42.9 µM, respectively. Further, the “Externalization of phosphatidylserine” value in the assay with L929 cells [3] is recorded as “promoted externalization of PS significantly above that induced by medium alone”.
As for `CC(C)=CCC1=C(O)C(=O)c2ccccc2C1=O` [Compound 4, 2-hydroxy-3-(3-methyl-2 butenil)-1, 4 naphthoquinone], the IC50 in assay [1] was found to be 15 µg/mL; in assay [1] (same value converted to µM) it was 62 µM. Besides, the “Externalization of phosphatidylserine” value with L929 cells [3] is “promoted externalization of PS significantly above that induced by medium alone”.
As to `CC1=CC(=O)c2c(O)cccc2C1=O` [Compound 5, 2-methyl-5-hydroxy-1,4-napthoquinone, reference compound], in assay [1], the Toxicity group result is recorded as “Group III High toxicity” and the IC50 is less than 1 µg/mL. Also, the IC50 in assay [1] (same value converted to µM) was less than 5.3 µM. For the same molecule, the “Effect on cellular morphology” value in the assay with L929 cells [2] is “detrimental to cell survival”. The “Externalization of phosphatidylserine” value in the assay on L929 cells [3] is recorded as “promoted externalization of PS significantly above that induced by medium alone”. The “Activation of caspase 3” value in the assay with caspase 3 in L929 cells is “activated caspase 3 equivalently”. Moreover, the “Change in mitochondrial membrane potential (depolarization)” value in the assay on L929 cells [7] is “does not activate mitochondrial depolarization”. Further, the “Formation” value with L929 cells [4] was “induced levels of ROS equal to that induced by H2O2”. In addition, in the assay with L929 cells [5], the “Protection of compound-treated cells by SOD (viability)” value was “did not protect”; the “Protection of compound-treated cells by combination of catalase and SOD (viability)” value is “did not protect”; the “Protection of compound-treated cells by catalase (viability)” value is “did not protect”. Besides, the “Protection of compound-treated cells by ascorbic acid pre-treatment (viability)” value with L929 cells [6] was “partially protected from cell death”.
As to `O=C1C=CC(=O)c2ccccc21` [Compound 6, 1,4-napthoquinone], the IC50 was less than 1 µg/mL in assay [1] and less than 6.3 µM in assay [1] (same value converted to µM). In the assay with L929 cells [3], the “Externalization of phosphatidylserine” value was “promoted externalization of PS significantly above that induced by medium alone”. In the assay with caspase 3 in L929 cells, the “Activation of caspase 3” value is on record as “activated caspase 3 equivalently”.
On to `O=C1C=CC(=O)c2c(O)cccc21` [Compound 7, 5-hydroxy-1,4-napthoquinone, reference compound], for which the IC50 is less than 1 µg/mL in assay [1] and less than 5.7 µM in assay [1] (same value converted to µM). Moreover, the “Externalization of phosphatidylserine” value in the assay on L929 cells [3] is listed as “promoted externalization of PS significantly above that induced by medium alone”.
Turning to `N#CC1=C(C#N)C(=O)C(Cl)=C(Cl)C1=O` [Compound 8, 2,3-dichloro-5,6-dicyano-1,4-benzoquinone], in assay [1], the Toxicity group entry was “Group I No toxicity” and the “IC50 (concentration of compound that induces 50% inhibition of survival)” value is reported as “No inhibition”.
With `CC1=C(C/C=C(\C)CCC[C@H](C)CCC[C@H](C)CCCC(C)C)C(=O)c2ccccc2C1=O` [Compound 9, 2-methyl-3-phytyl-1,4-naphthoquinone, reference compound], the “IC50 (concentration of compound that induces 50% inhibition of survival)” value in assay [1] is reported as “No inhibition”. Further, the “Effect on cellular morphology” value in the assay with L929 cells [2] was “no effect on the cells”. In addition, the “Externalization of phosphatidylserine” value with L929 cells [3] is recorded as “promoted externalization of PS significantly above that induced by medium alone”. Also, the “Formation” value with L929 cells [4] is listed as “induced ROS equal to that generated in non-treated cells”.
Regarding `O=C1c2ccccc2C(=O)C2OC12` (stereo not drawn) [Compound 10, 1,4-napthoquinone epoxide], the IC50 in assay [1] worked out at 4 µg/mL; in assay [1] (same value converted to µM), 23 µM.
Take `CCCC1=CC(=O)c2ccccc2C1=O` [Compound 11, 2-propyl-1,4-napthoquinone]: in assay [1], the Toxicity group result was “Group II Low toxicity” and the IC50 turned out to be 60 µg/mL. Further, the IC50 in assay [1] (same value converted to µM) was determined as 300 µM. Besides, the “Externalization of phosphatidylserine” value in the assay with L929 cells [3] is on record as “promoted externalization of PS significantly above that induced by medium alone”.
Take `CCC1=C(C)C(=O)c2ccccc2C1=O` [Compound 12, 2-ethyl-3-methyl-1,4-napthoquinone]: the IC50 in assay [1] came to 30 µg/mL; in assay [1] (same value converted to µM) it was 150 µM.
`OO` [Compound H2O2, hydrogen peroxide]: the “Effect on cellular morphology” value with L929 cells [2] was “rounded, granular, and vesiculated”.

The values above are taken from paper PMC4157788, “A Small Library of Synthetic Di-Substituted 1, 4-Naphthoquinones Induces ROS-Mediated Cell Death in Murine Fibroblasts” (PLoS ONE, 2014).
